Measurements as given in patent US6413907B2, “Herbicidal composition” (Syngenta Crop Protection, Inc., priority 1999, dated 2002).

Assays:
Type in all cases: in vivo
Digitaria = assay: Postemergence test, greenhouse; settings: halosulfuron 100 g/ha, after 20 days
Excerpt: (§1) A synergistic effect is always obtained when the herbicidal action of the combination of compound I and 2.1 to 2.33 is greater than the sum of the action of the individual herbicides.
(§2) The expected herbicidal action We for a given combination of two herbicides can be calculated as follows (q.v. COLBY, S. R., “Calculating synergistic and antagonistic response of herbicide combinations”, Weeds 15, pages 20-22, 1967):
(§3) If the value actually observed is higher than the expected value We, then there is synergism.
(§4) The test plants are grown under greenhouse conditions in plastic pots until reaching the 2-3 leaf stage. Standard soil is used, as the substrate for cultivation. At the 2-3 leaf stage, the herbicides are applied to the test plants on their own and in a mixture. Application is effected in the form of an aqueous suspension of the test substances in 500 1 water/ha. The rates of application depend on the optimum dosages determined under field conditions and greenhouse conditions. Evaluation of the tests is made after 20 days (% activity, 100%=plant perished, 0%=no phytotoxic effect).

maize Dk 261 = assay: Postemergence test, greenhouse; settings: halosulfuron 100 g/ha, after 20 days
Excerpt: as §1, §2, §3, §4

Convolvulus = assay: Pre-emergence test, greenhouse; settings: terbutylazin 200 g/ha, after 26 days
Excerpt: as §1, §2, §3
(§5) The test plants are sown in plastic pots in standard soil under greenhouse conditions. Directly after sowing, the test substances are applied in an aqueous suspension (500 l water/ha). The test plants are then further cultivated in the greenhouse under optimum conditions. The rates of application depend on the optimum dosages determined under field conditions and greenhouse conditions. Evaluation of the tests is made after 26 days (% activity, 100% plant perished, 0%=no phytotoxic effect).

Ipomoea = assay: Pre-emergence test, greenhouse; settings: terbutylazin 200 g/ha, after 26 days
Excerpt: as §1, §2, §3, §5

Polygonum = assay: Pre-emergence test, greenhouse; settings: terbutylazin 200 g/ha, after 26 days
Excerpt: as §1, §2, §3, §5

Xanthium = assay: Pre-emergence test, greenhouse; settings: terbutylazin 200 g/ha, after 26 days
Excerpt: as §1, §2, §3, §5

Compound	% activity (herbicidal action) (Digitaria) [%]	% activity (herbicidal action) (maize Dk 261) [%]	% activity (herbicidal action) (Convolvulus) [%]	% activity (herbicidal action) (Ipomoea) [%]	% activity (herbicidal action) (Polygonum) [%]	% activity (herbicidal action) (Xanthium) [%]
COc1cc(OC)nc(NC(=O)NS(=O)(=O)c2c(C(=O)O)c(Cl)nn2C)n1 [halosulfuron]	25	5	–	–	–	–
CCNc1nc(Cl)nc(NC(C)(C)C)n1 [terbutylazin]	–	–	80	30	60	0
